Paper PMC6135396, “Repurposing antimalarial aminoquinolines and related compounds for treatment of retinal neovascularization” (PLoS ONE, 2018)

Columns and labels:
[1] = tested on: human retinal microvascular endothelial cells (HRECs); experiment: In vitro HREC tube formation assay; type: cell-based; conditions: for Stimulation of HREC endothelial tube formation: factor added alone
Procedure: In vitro tube formation assays were carried out as previously described. Briefly, near confluent microvascular endothelial cells were pretreated with VEGF (100 ng/ml) for 2 h and then treated for 24 h with test compounds at serial concentrations, as indicated. Cells without VEGF treatment or with VEGF only were used as control. The cells were then detached and plated sparsely (2.5 ×10^4/well) on 24-well plates coated with 12.5% (v/v) Matrigel (BD, Franklin Lakes, NJ) and left overnight. The medium was then aspirated and 250 μl/well of 12.5% Matrigel was overlaid on the cells for 2 h to allow the polymerization of Matrigel, followed by addition of 500 μl/well of basal medium MCD131 with 10% fetal calf serum (FCS) for 24 h. The following day, the culture plates were observed under a phase contrast microscope and photographed at random in five fields (×10). The tubule length (mm/mm^2) per microscope field was quantified.

[2] = biological target: T1, angiotensin II type 1 (AT1) (Homo sapiens, UniProt P30556); experiment: AT1 β-arrestin recruitment counter assay (CHO-K1-AT1); type: cell-based
T1 construct: β-galactosidase enzyme fragment (enzyme fragment complementation construct); host or cells: CHO-K1 (CHO-K1-AT1, PathHunter)
T1 sequence (P30556 1-359): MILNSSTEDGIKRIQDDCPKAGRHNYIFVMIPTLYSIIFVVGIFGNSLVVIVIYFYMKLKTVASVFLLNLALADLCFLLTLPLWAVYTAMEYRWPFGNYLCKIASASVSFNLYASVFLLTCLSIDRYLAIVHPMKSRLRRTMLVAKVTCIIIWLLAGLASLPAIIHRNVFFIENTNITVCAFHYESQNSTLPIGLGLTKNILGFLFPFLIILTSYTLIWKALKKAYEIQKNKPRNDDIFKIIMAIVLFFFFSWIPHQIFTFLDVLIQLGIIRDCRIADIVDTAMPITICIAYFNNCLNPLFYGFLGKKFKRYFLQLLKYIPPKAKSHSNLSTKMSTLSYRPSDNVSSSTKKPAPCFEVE
Procedure: (§1) PathHunter™ GPCR Arrestin and cAMP Hunter™ cell lines (DiscoveRx Corp., Fremont, CA) were used to assay G-protein-dependent signaling and β-arrestin recruitment to APJ. CHO-K1 cells stably expressing APJ (CHO-K1-APJ) or AT1 (CHO-K1-AT1) with β-arrestin/β-galactosidase enzyme fragment complementation constructs were maintained in HAM's F-12 medium (Hyclone, Logan, UT) supplemented with 10% FBS, 1X Penicillin-Streptomycin-Glutamine (Invitrogen; Carlsbad, CA), 300 μg/ml hygromycin (EMD Biosciences, San Diego, CA), and 800 μg/ml Geneticin (Cellgro, Manassas, VA). Primary Human Retinal Microvascular Endothelial Cells (HRECs) were purchased from Cell Systems (Kirkland, WA) and maintained in Complete Classic Medium with CultureBoost-R™ (Cell Systems). Parent CHO-K1 cells were obtained from ATCC and maintained in HAM’s F-12 medium supplemented with 10% FBS, and1X Penicillin-Streptomycin-Glutamine (Invitrogen; Carlsbad, CA). All cells were incubated at 37°C (5% CO2, 95% relative humidity) and maintained at less than 70% to 80% confluence (approximately 75,000 cells/cm^2). Cell heterologously expressing APJ or AT1 were not used after 10 passages. HRECs were not used in any experiments after five passages.
(§2) CHO-K1 cells engineered to over-express APJ or AT1, and β-arrestin were removed from flasks using TrypLE Select (1X), no phenol red (Life Technologies, Grand Island, NY), centrifuged, and resuspended in CP2 Reagent (DiscoveRx, Fremont, CA). Cells were counted using a Countess Automated Cell Counter (Invitrogen, Carlsbad, CA) and 5,000 cells/well were plated in a 384-well tissue culture treated microplate (Corning, Corning, NY). All plates were incubated overnight at 37°C, 5% CO2 in a final volume of 25 μl/well. Following incubation, 5 μl of peptides (10-point concentrations) and controls prepared in ligand buffer (1X HBSS, 10 mM HEPES, 0.1% BSA) were added to cells and incubated at 37°C for 1.5 h. Using a Multidrop Combi Reagent Dispenser (Thermo Scientific), 12 μl of Detection Reagent (DiscoveRx) comprised of substrate and co-factors was added to all wells and incubated at room temperature in the dark for 1 h. Chemiluminescent signal was detected on an EnVision Multi-label plate reader (Perkin Elmer) using a counting time of 1 s/well. The robustness of data from each screening plate and run was monitored by Z’ and Signal Window calculation.

parental CHO-K1 cells = experiment: Parental cAMP counter assay (cells lacking APJ); type: cell-based; conditions: Cricetulus griseus
Procedure: (§3) To identify small-molecule antagonists of the apelin receptor (APJ) we interrogated the SBP compound file of ~425,000 compounds using CHO-k1-AGTRL1 cells overexpressing human APJ and a competitive immunoassay of intracellular cAMP [59]. The compound file was screened at a concentration of 10 μM. For all 333 plates assayed, the average Z-factor = 0.68 and the average S/B = 8.2, indicating a robust assay performance. […] There were 2550 compounds that met this criterion, representing a hit rate of ~0.6%. […] Included in this hit set was a series of aminoquinolines, exemplified by compound 1 (Fig 1B). […] As part of an initial hit-validation strategy, these compounds and three other commercially available analogs were purchased for further testing. The purity and identify of all compounds were confirmed by NMR and LC-MS, and they were subsequently retested in a battery of cell-based assays of APJ function and counter screens. […] (Fig 1D).
as §1
(§4) All reagents unless otherwise specified are components of the cAMP HitHunter (DiscoveRx) kit. Ligand Buffer + 60 μM Forskolin (Cayman Chemical, Ann Arbor, MI) was made fresh on the day of the experiment and used for the dilution of positive and negative controls as well as all peptides. CHO-K1-APJ cells were dispensed into a 1536-well tissue culture microplate (Corning, Corning, NY) using a Multidrop at a seeding density of 1,000 cells/well and returned to the incubator. The next day, the cell culture media was removed and replaced with 15 μl/well of assay buffer (1X HBSS, 10 mM HEPES) containing anti-cAMP antibody (DiscoveRx). […] Plates were incubated at room temperature in the dark for 3 hours prior to chemiluminescence detection on an EnVision (Perkin Elmer) using a counting time of 1 s/well.

[3] = Cytotoxicity, ATP-Lite, Fa2N-4 immortalized human hepatocytes; type: cell-based; conditions: ATP-lite assay, Fa2-N4 cells
Procedure: (§5) Fa2N-4 immortalized human hepatocytes (Xenotech) or HREC cells were grown to subconfluency in wells of a 96-well plate and exposed to different concentrations of compounds for 24 h after which the cells were washed and the media and compounds replaced. The cells were returned to the incubator for another 24 h. The extent of cell death (cell lysis) was determined by ATP-Lite reagent (Perkin-Elmer).

APJ [4] = biological target: T2, APJ (Homo sapiens, UniProt P35414); experiment: APJ cAMP assay (primary, cAMP HitHunter, CHO-K1-APJ cells); type: cell-based; parameters: host or cells: CHO-K1 (CHO-K1-APJ / CHO-k1-AGTRL1)
T2 sequence (P35414 1-380): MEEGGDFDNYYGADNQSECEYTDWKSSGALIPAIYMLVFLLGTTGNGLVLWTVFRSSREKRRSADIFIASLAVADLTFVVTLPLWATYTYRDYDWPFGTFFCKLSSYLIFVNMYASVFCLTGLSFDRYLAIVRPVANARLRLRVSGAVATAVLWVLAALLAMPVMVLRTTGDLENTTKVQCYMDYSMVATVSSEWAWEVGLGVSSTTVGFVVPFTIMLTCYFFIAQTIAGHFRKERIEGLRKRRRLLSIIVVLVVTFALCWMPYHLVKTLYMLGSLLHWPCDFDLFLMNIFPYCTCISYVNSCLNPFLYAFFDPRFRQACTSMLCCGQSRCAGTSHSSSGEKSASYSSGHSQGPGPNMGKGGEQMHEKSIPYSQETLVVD
Procedure: as §3, §1, §4

APJ [5] = biological target: T2, APJ; experiment: APJ β-arrestin recruitment assay (PathHunter, CHO-K1-APJ); type: cell-based; parameters: β-galactosidase enzyme fragment (enzyme fragment complementation construct); host or cells: CHO-K1 (CHO-K1-APJ, PathHunter); conditions: for IC50: secondary assay, Ap13-mediated β-arrestin recruitment
Procedure: as §1, §2

HRECs [6] = experiment: Cytotoxicity, ATP-Lite, HRECs; type: cell-based; conditions: tested up to 100 μM
Procedure: as §5

HRECs [7] = conditions: VEGF 100 ng/mL, Ap13 10 nM
Procedure: The proliferation of HRECs was monitored by the crystal violet assay as described in our previous publication. […] After washing three times with PBS, the plates were air-dried and the remaining stain was dissolved in, 10% acetic acid and absorbance measured with a microplate reader at 540 nm.

HRECs [8] = conditions: VEGF 100 ng/mL, Ap13 10 nM; remark: listed apart in the source
Procedure: Migration was determined by the QCM™ chemotaxis 5 μm 96-well cell migration assay (Chemicon International, Inc.) as per the manufacture’s protocol. […] After 16 h, cells that migrated to the basal side of the chamber insert membrane were detached, lysed and detected using CyQuant GR™ dye. Migration is expressed as percent increase in migrated cells compared to untreated cells.

[9] = Fa2N-4 immortalized human hepatocytes

Question: Which “Stimulation of HREC endothelial tube formation” value [1] does the source give for `CSCC[C@H](NC(=O)[C@@H]1CCCN1C(=O)CNC(=O)[C@H](CCCCN)NC(=O)[C@H](Cc1c[nH]cn1)NC(=O)[C@H](CO)NC(=O)[C@H](CC(C)C)NC(=O)[C@H](CCCNC(=N)N)NC(=O)[C@@H]1CCCN1C(=O)[C@H](CCCNC(=N)N)NC(=O)[C@@H](N)CCC(N)=O)C(=O)N1CCC[C@H]1C(=O)N[C@@H](Cc1ccccc1)C(=O)O` [Ap13, apelin-13] here?
Answer: stimulated the formation of endothelial tubes

Question: For `NC(=O)c1ccc(Nc2ccnc3cc(Cl)ccc23)cc1` [Compound 1, 4-((7-chloroquinolin-4-yl)amino)benzamide], which IC50 [2] is on record?
Answer: > 40 µM

Question: What about the IC50 (parental CHO-K1 cells) of the same compound?
Answer: > 99 µM

Question: And the IC50 at 48 h [3, 9]?
Answer: > 50 µM

Question: And the IC50 (APJ [4])?
Answer: 0.556 ± 0.105 µM

Question: And the “Antagonism of Ap13-mediated recruitment of β-arrestin” value (“Antagonism … of β-arrestin” for short) (APJ [5])?
Answer: neither AQ nor 1, 3, 4, 5, or 6 antagonized

Question: What about the IC50 (APJ [5]) of the same compound?
Answer: > 99 µM

Question: With `O=C(OCC(O)CO)c1ccccc1Nc1ccnc2cc(Cl)ccc12` (stereo not drawn) [Compound 3, glafenine] as the compound, how does the IC50 [2] read?
Answer: > 99 µM

Question: And the IC50 (parental CHO-K1 cells)?
Answer: > 99 µM

Question: What about the IC50 at 48 h [3, 9] of the same compound?
Answer: > 50 µM

Question: What about the IC50 (APJ [4]) of the same compound?
Answer: 1.15 ± 0.025 µM

Question: And the “Antagonism … of β-arrestin” value (APJ [5])?
Answer: neither AQ nor 1, 3, 4, 5, or 6 antagonized

Question: What about the IC50 (APJ [5]) of the same compound?
Answer: > 99 µM

Question: Which IC50 [2] does the source give for `COc1ccc(Nc2ccnc3cc(Cl)ccc23)cc1` [Compound 4, 7-chloro-N-(4-methoxyphenyl)quinolin-4-amine] here?
Answer: > 40 µM

Question: And the IC50 (parental CHO-K1 cells)?
Answer: > 99 µM

Question: What about the IC50 at 48 h [3] of the same compound?
Answer: > 50 µM

Question: And the IC50 (APJ [4])?
Answer: 1.42 ± 0.038 µM

Question: What about the “Antagonism … of β-arrestin” value (APJ [5]) of the same compound?
Answer: neither AQ nor 1, 3, 4, 5, or 6 antagonized

Question: And the IC50 (APJ [5])?
Answer: > 40 µM

Question: For `O=C(O)c1ccccc1Nc1ccnc2cc(Cl)ccc12` [Compound 5, 2-((7-chloroquinolin-4-yl)amino)benzoic acid], which IC50 [2] is on record?
Answer: > 40 µM

Question: And the IC50 (parental CHO-K1 cells)?
Answer: > 99 µM

Question: And the IC50 (APJ [4])?
Answer: 0.937 ± 0.084 µM

Question: What about the “Antagonism … of β-arrestin” value (APJ [5]) of the same compound?
Answer: neither AQ nor 1, 3, 4, 5, or 6 antagonized

Question: What about the IC50 (APJ [5]) of the same compound?
Answer: > 40 µM

Question: What does the source list for `O=C(c1ccccc1Nc1ccnc2cc(Cl)ccc12)N1CCOCC1` [Compound 6, (2-((7-chloroquinolin-4-yl)amino)phenyl)(morpholino) methanone]?
Answer: IC50 [2]: > 40 µM; IC50 (parental CHO-K1 cells): > 99 µM; IC50 (APJ [4]): 23.5 ± 0.161 µM; Antagonism of Ap13-mediated recruitment of β-arrestin (APJ [5]): neither AQ nor 1, 3, 4, 5, or 6 antagonized; IC50 (APJ [5]): > 99 µM

Question: Which “APJ antagonism in the APJ cAMP assay” value (APJ [4]) does the source give for `CCNCc1cc(Nc2ccnc3cc(Cl)ccc23)ccc1O` [DEAQ, desethylamodiaquine] here?
Answer: effective APJ antagonist equipotent to the parent AQ

Question: For `O=C(Oc1coc(CSc2ncccn2)cc1=O)c1ccc([N+](=O)[O-])cc1` [ML221, 4-oxo-6-((pyrimidin-2-ylthio)methyl)-4H-pyran-3-yl 4-nitrobenzoate], which “Cytotoxicity to HRECs” value (HRECs [6]) is on record?
Answer: Neither ML221 nor AQ were significantly toxic

Question: What about the “Effect on Ap13-dependent increase in HREC tube formation” value ([1]; Ap13-induced, concentration-dependent) of the same compound?
Answer: blocked Ap13-dependent increases in tube formation

Question: What about the “Effect on VEGF-induced HREC tube formation” value ([1]; VEGF 100 ng/mL, absence of exogenous Ap13) of the same compound?
Answer: A similar effect was observed

Question: With VEGF as the compound, how does the “Stimulation of HREC endothelial tube formation” value [1] read?
Answer: stimulated the formation of endothelial tubes

Question: What about the “Effect on HREC proliferation” value (HRECs [7]) of the same compound?
Answer: stimulated HREC proliferation and migration

Question: And the “Effect on HREC migration” value (HRECs [8])?
Answer: stimulated HREC proliferation and migration
